Values after ≈ are worked out from the molar mass of the structure shown. Where two headings read alike, the source gives them in different places.
How the values were obtained:
Format in all cases: cell-based
[1] = system: HCT116 (rectal cancer) cell line; assay: Anti-cancer activity in vitro, HCT116 cell line; settings: HCT116 Cell Line
Description: (§1) The anti-cancer activity and toxicity of the compound according to the present invention were evaluated in vitro using A549 (lung cancer), SUN638 (gastric cancer), HCT116 (rectal cancer), and A431 (ovarian cancer) cell lines. The above four (4) cell lines were purchased from Cancer Research Institute, Seoul National University College of Medicine. […] The experiment was basically carried out according to the process described in Monks, A., et al, Journal of National Cancer Institute. 83: 757-766 (1991) and the results are represented in the following Tables 2 and 3.

[2] = system: A549 (lung cancer) cell line; assay: Anti-cancer activity in vitro, A549 cell line
Description: as §1

[3] = system: SUN638 (gastric cancer) cell line; assay: Anti-cancer activity in vitro, SUN638 cell line
Description: as §1

[4] = system: A431 (ovarian cancer) cell line; assay: Anti-cancer activity in vitro, A431 cell line; settings: A431 Cell Line
Description: as §1

Question: What does the source list for `CCOc1nc2ccccc2nc1NC(=O)N1CCc2cc(OC)c(OC)cc2C(c2ccccc2)C1` (stereo not drawn) [Compound 7, 3-[N-(2-ethoxyquinoxalin-3-yl)aminocarbonyl]-7,8-dimethoxy-1-phenyl-2,3,4,5-tetrahydro-3H-benzazepine]?
Answer: GI50 [1]: 0.15 µg/mL (≈ 0.301 µM); LC50 [1]: >100 µg/mL; TGI50 [1]: 4.08 µg/mL; GI50 ([2]; A549 Cell Line): 3.38 µg/mL (≈ 6.78 µM); LC50 ([2]; A549 Cell Line): >100 µg/mL; TGI50 ([2]; A549 Cell Line): 100 µg/mL; GI50 ([3]; SUN638 Cell Line): 2.45 µg/mL (≈ 4.91 µM); LC50 ([3]; SUN638 Cell Line): >100 µg/mL; TGI50 ([3]; SUN638 Cell Line): 7.41 µg/mL

Question: Which results are given for `COc1cc2c(cc1OC)C(c1ccc(Cl)cc1)CN(C(=O)Nc1nc3ccccc3nc1OC)CC2` (stereo not drawn) [Compound 6, 3-[N-(2-methoxyquinoxalin-3-yl)aminocarbonyl]-7,8-dimethoxy-1-(4-chloro)phenyl-2,3,4,5-tetrahydro-3H-benzazepine]?
Answer: GI50 [1]: 0.39 µg/mL (≈ 0.751 µM); LC50 [1]: >100 µg/mL; TGI50 [1]: 3.31 µg/mL; GI50 ([2]; A549 Cell Line): 2.69 µg/mL (≈ 5.18 µM); LC50 ([2]; A549 Cell Line): >100 µg/mL; TGI50 ([2]; A549 Cell Line): 100 µg/mL; GI50 ([3]; SUN638 Cell Line): 1.90 µg/mL (≈ 3.66 µM); LC50 ([3]; SUN638 Cell Line): >100 µg/mL; TGI50 ([3]; SUN638 Cell Line): 6.91 µg/mL

Question: For `N.N.[Cl][Pt][Cl]` [Cisplatin, cisplatin, reference compound], which GI50 [1] is on record?
Answer: Its GI50 is 2.9 µg/mL.

Question: What about the TGI50 [1] of the same molecule?
Answer: The TGI50 was 32.77 µg/mL.

Question: What about the GI50 [4] of the same molecule?
Answer: The GI50 was 3.2 µg/mL.

Question: And the TGI50 [4]?
Answer: The TGI50 was 28.7 µg/mL.

Question: What about the GI50 ([2]; A549 Cell Line) of the same molecule?
Answer: The GI50 was 3.8 µg/mL.

Question: And the TGI50 ([2]; A549 Cell Line)?
Answer: Its TGI50 is 47.3 µg/mL.

Question: What about the GI50 ([3]; SUN638 Cell Line) of the same molecule?
Answer: The GI50 was 1.7 µg/mL.

Question: What about the TGI50 ([3]; SUN638 Cell Line) of the same molecule?
Answer: The TGI50 was 13.3 µg/mL.

Question: How did the GI50 [1] turn out when `COc1ccc2c(c1)C(c1ccc(Cl)cc1)CN(C(=O)n1ccnc1)CC2` (stereo not drawn) [Compound 74, 3-[(1H-imidazol-1-yl)carbonyl]-8-methoxy-1-(4-chloro)phenyl-2,3,4,5-tetrahydro-3H-benzazepine] was run?
Answer: The GI50 was 1.44 µg/mL (≈ 3.77 µM).

Question: And the LC50 [1]?
Answer: Its LC50 is >100 µg/mL.

Question: And the TGI50 [1]?
Answer: Its TGI50 is 7.24 µg/mL.

Question: What does the source list for `COc1ccc(C#N)cc1NC(=O)N1CCN(c2cc(C)cc(C)c2)CC1` [Compound 26, 1-[(2-methoxy-5-cyanophenyl)aminocarbonyl]-4-(3,5-dimethylphenyl)piperazine]?
Answer: LC50 ([2]; Homo sapiens, A549, read-out: LC50): > 100 µg/mL; GI50 ([2]; Homo sapiens, A549 Cell Line, read-out: GI50): 1.36 µg/mL (≈ 3.73 µM); GI50 ([3]; SUN638 Cell Line, read-out: GI50): 2.51 µg/mL (≈ 6.89 µM); LC50 ([3]; read-out: LC50): > 100 µg/mL

Question: For `COc1cc2c(cc1OC)C(c1ccc(F)cc1)CN(C(=O)Nc1nc3ccccc3nc1OC)CC2` (stereo not drawn) [Compound 5, 3-[N-(2-methoxyquinoxalin-3-yl)aminocarbonyl]-7,8-dimethoxy-1-(4-fluoro)phenyl-2,3,4,5-tetrahydro-3H-benzazepine], which GI50 [1] is on record?
Answer: The GI50 was 0.15 µg/mL (≈ 0.298 µM).

Question: And the LC50 [1]?
Answer: Its LC50 is >100 µg/mL.

Question: And the TGI50 [1]?
Answer: The TGI50 was 4.07 µg/mL.

Question: What about the GI50 ([2]; A549 Cell Line) of the same molecule?
Answer: Its GI50 is 2.08 µg/mL (≈ 4.14 µM).

Question: What about the LC50 ([2]; A549 Cell Line) of the same molecule?
Answer: The LC50 was >100 µg/mL.

Question: And the TGI50 ([2]; A549 Cell Line)?
Answer: Its TGI50 is 46.98 µg/mL.

Question: What about the GI50 ([3]; SUN638 Cell Line) of the same molecule?
Answer: The GI50 was 1.69 µg/mL (≈ 3.36 µM).

Question: What about the LC50 ([3]; SUN638 Cell Line) of the same molecule?
Answer: The LC50 was >100 µg/mL.

Question: What about the TGI50 ([3]; SUN638 Cell Line) of the same molecule?
Answer: The TGI50 was 6.16 µg/mL.

Question: Which results are given for `COc1cc2c(cc1OC)[C@@H](c1ccccc1)CN(C(=O)Nc1nc3ccccc3nc1OC)CC2` [Compound 4, 3-[N-(2-methoxyquinoxalin-3-yl)aminocarbonyl]-(R)-7,8-dimethoxy-1-phenyl-2,3,4,5-tetrahydro-3H-benzazepine]?
Answer: GI50 [1]: 0.12 µg/mL (≈ 0.248 µM); LC50 [1]: >100 µg/mL; TGI50 [1]: 3.54 µg/mL; GI50 ([2]; A549 Cell Line): 1.20 µg/mL (≈ 2.48 µM); LC50 ([2]; A549 Cell Line): >100 µg/mL; TGI50 ([2]; A549 Cell Line): 100 µg/mL; GI50 ([3]; SUN638 Cell Line): 1.86 µg/mL (≈ 3.84 µM); LC50 ([3]; SUN638 Cell Line): >100 µg/mL; TGI50 ([3]; SUN638 Cell Line): 6.76 µg/mL

Question: `COc1cc2c(cc1OC)C(c1ccc(Cl)cc1)CN(C(=O)n1ccnc1)CC2` (stereo not drawn) [Compound 71, 3-[(1H-imidazol-1-yl)carbonyl]-7,8-dimethoxy-1-(4-chloro)phenyl-2,3,4,5-tetrahydro-3H-benzazepine] was tested. Which GI50 [1] did it give?
Answer: Its GI50 is 2.69 µg/mL (≈ 6.53 µM).

Question: What about the LC50 [1] of the same molecule?
Answer: The LC50 was >100 µg/mL.

Question: And the TGI50 [1]?
Answer: Its TGI50 is 14.12 µg/mL.

Question: And the GI50 ([2]; A549 Cell Line)?
Answer: The GI50 was 4.78 µg/mL (≈ 11.6 µM).

Question: What about the LC50 ([2]; A549 Cell Line) of the same molecule?
Answer: The LC50 was >100 µg/mL.

Question: And the TGI50 ([2]; A549 Cell Line)?
Answer: The TGI50 was 93.32 µg/mL.

Question: What about the GI50 ([3]; SUN638 Cell Line) of the same molecule?
Answer: Its GI50 is 2.63 µg/mL (≈ 6.39 µM).

Question: What about the LC50 ([3]; SUN638 Cell Line) of the same molecule?
Answer: Its LC50 is >100 µg/mL.

Question: What about the TGI50 ([3]; SUN638 Cell Line) of the same molecule?
Answer: The TGI50 was 9.12 µg/mL.

Question: With `COc1cc2c(cc1OC)C(c1ccccc1)CN(C(=O)Nc1cc(C)c(C)nc1OC)CC2` (stereo not drawn) [Compound 1, 3-[N-(5,6-dimethyl-2-methoxypyridin-3-yl)aminocarbonyl]-7,8-dimethoxy-1-phenyl-2,3,4,5-tetrahydro-3H-benzazepine] as the molecule, how does the GI50 ([2]; A549 Cell Line) read?
Answer: The GI50 was 1.21 µg/mL (≈ 2.62 µM).

Question: What about the LC50 ([2]; A549 Cell Line) of the same molecule?
Answer: The LC50 was >100 µg/mL.

Question: And the TGI50 ([2]; A549 Cell Line)?
Answer: The TGI50 was 39.81 µg/mL.

Question: What about the GI50 ([3]; SUN638 Cell Line) of the same molecule?
Answer: The GI50 was 1.99 µg/mL (≈ 4.31 µM).

Question: And the LC50 ([3]; SUN638 Cell Line)?
Answer: The LC50 was >100 µg/mL.

Question: And the TGI50 ([3]; SUN638 Cell Line)?
Answer: The TGI50 was 7.07 µg/mL.

Question: `COc1ccc2c(c1)C(c1ccccc1)CN(C(=O)n1ccnc1)CC2` (stereo not drawn) [Compound 72, 3-[(1H-imidazol-1-yl)carbonyl]-8-methoxy-1-phenyl-2,3,4,5-tetrahydro-3H-benzazepine] was tested. Which GI50 [1] did it give?
Answer: Its GI50 is 0.10 µg/mL (≈ 0.288 µM).

Question: What about the LC50 [1] of the same molecule?
Answer: The LC50 was >100 µg/mL.

Question: And the TGI50 [1]?
Answer: Its TGI50 is 9.42 µg/mL.

Question: And the GI50 ([2]; A549 Cell Line)?
Answer: Its GI50 is 2.23 µg/mL (≈ 6.42 µM).

Question: What about the LC50 ([2]; A549 Cell Line) of the same molecule?
Answer: The LC50 was >100 µg/mL.

Question: What about the TGI50 ([2]; A549 Cell Line) of the same molecule?
Answer: The TGI50 was 100 µg/mL.

Question: And the GI50 ([3]; SUN638 Cell Line)?
Answer: Its GI50 is 1.44 µg/mL (≈ 4.14 µM).

Question: And the LC50 ([3]; SUN638 Cell Line)?
Answer: The LC50 was >100 µg/mL.

Question: What about the TGI50 ([3]; SUN638 Cell Line) of the same molecule?
Answer: Its TGI50 is 7.24 µg/mL.

From patent publication US20020019389A1, “Urea derivative useful as an anti-cancer agent and process for preparing same” (priority 2000, published 2002)
